Assay results: patent publication US20130137856A1, “PROTEIN BINDING DOMAINS STABILIZING FUNCTIONAL CONFORMATIONAL STATES OF GPCRS AND USES THEREOF” (priority 2010, published 2013)
Counter-ions that a name gives are not always drawn. Like-named read-outs stand apart in the source and are kept apart here.

Experiments:
β2AR [1] = target: T1, β2AR (Homo sapiens, UniProt P07550); assay: Competition radioligand binding on commercial insect cell membranes with full-length human β2AR, Nb80 versus irrelevant Nb
β2AR [2] = target: T1, β2AR; assay: [3H]-DHA saturation binding on β2AR reconstituted in HDL particles; parameters: recombinant β2AR truncated at Gly365 (β2AR-365); made in house; host or cells: Sf9 insect cells (membranes); conditions: read-out: [3H]-DHA saturation binding Kd ± S.E.
Protocol: (§1) The effect of Nb80 and Gs on the receptors affinity for agonists was compared in competition binding experiments. The β2AR and β2AR-[…] (both […]) purified as previously described (Rosenbaum et al. 2007; […] GTPγS was used at 10 μM. […] Bound ^3H-DHA was separated from unbound on a Brandel harvester by passing over a Whatman GF/B filter (presoaked in TBS with 0.3% polyethylenimine) and washed in cold TBS. Radioligand binding was measured in a Beckman LS6000 scintillation counter. Ligand binding affinity (Kd) of DHA was determined from saturation binding curves using GraphPad Prism software.

β2AR-T4L = target: T2, β2AR-T4L (Homo sapiens, UniProt P07550, DEL231-262, form not given); assay: [3H]-DHA saturation binding on β2AR-T4L reconstituted in HDL particles; conditions: read-out: [3H]-DHA saturation binding Kd ± S.E.
T2 construct: The β2AR and β2AR-T4L (both truncated at position 365) purified as previously described (Rosenbaum et al. 2007); fused on or other part: T4 lysozyme (in the cited construct residues 2-161, C54T/C97A) inserted in place of the third intracellular loop as a crystallisation aid
Protocol: as §1

[3] = 500 nM Nb80 or irrelevant Nb, 2 nM 3H-DHA radioligand

CC(NCCc1ccc(O)cc1)C(O)c1ccc(O)cc1 (stereo not shown) [ritodrine, ritodrine hydrochloride]
Potency shift (ratio of IC50 with irrelevant Nb to IC50 with Nb80) (β2AR [1]; [3]): 2.7

CCC(NC(C)C)C(O)c1ccc(O)c2[nH]c(=O)ccc12 (stereo not shown) [procaterol, procaterol hydrochloride]
Potency shift (ratio of IC50 with irrelevant Nb to IC50 with Nb80) (β2AR [1]; [3]): 2.3

metaproterenol hemisulfate salt
Potency shift (ratio of IC50 with irrelevant Nb to IC50 with Nb80) (β2AR [1]): 2.9

CC(Cc1ccc(O)cc1)NCC(O)c1cc(O)cc(O)c1 (stereo not shown) [fenoterol, fenoterol hydrobromide]
Potency shift (ratio of IC50 with irrelevant Nb to IC50 with Nb80) (β2AR [1]; [3]): 3.7

CCCc1ccccc1OCC(O)CNC(C)C (stereo not shown) [[^3H]-DNA, [^3H]-dihydroalprenolol]
Kd (β2AR [2]): 0.55 ± 0.09 nM
Kd (β2AR-T4L): 0.42 ± 0.01 nM

CC(CCc1ccc(O)cc1)NCCc1ccc(O)c(O)c1 (stereo not shown) [dobutamine, dobutamine hydrochloride]
Potency shift (ratio of IC50 with irrelevant Nb to IC50 with Nb80) (β2AR [1]; [3]): 2.3
